Source: patent publication US9884084B2, “Bone loss preventing and bone regeneration or bone formation promoting pharmaceutical composition comprising muramyl dipeptide” (SNU R&DB FOUNDATION, priority 2012, dated 2018)

Columns and labels:
Runx2 [1] = assay: 6XOSE/Luc luciferase reporter assay of Runx2 transcriptional activity in MC4 cells; format: cell-based
Experimental: Further to examine whether the increased expression of Runx2, which is a transcription factor, affects the expression of other genes regulated by Runx2, the following experiments were performed. For this, MC4 cells were seeded onto each well of a 96 well plate at the concentration of 20,000 cells/well and the cells were transfected with a plasmid 6XOSE/Luc reporter vector (Journal of Biological Chemistry. 285: 3568-3574 (2010)) which expresses luciferase gene under the control of osteocalcin using Lipofectamin® (Life technologies, Inc) according to the manufacturer's instruction. The promoter in the plasmid contains […] to each of which Runx2 binds. By binding of Runx2 to the motif, the expression of luciferase increases. After 16 hrs after the transfection, MDP at the concentration as indicated in FIG. 3 was added to the cells. After 24 hrs, the cells were lysed and the luciferase activity was measured using Luciferase detection kit (Promega, USA) according to the manufacturer's instruction to quantify the mRNA level of osteocalcin gene, which is affected by Runx2.
In addition to MDP as used in Example 2-1, as a derivative thereof, M-TriLYS (MurNAc-Ala-D-isoGln-Lys, N-acetylmuramyl-L-alanine-D-isoglutamine-lysine) and 6-O-stearoyl-N-acetylmuramyl-L-alanyl-D-isoglutamine (L18-MDP) were used to examine the effect of the derivatives on the expression of Runx2 at transcription level. M-TriLYS is a muropeptide obtainable from peptidoglycans of lactobacillus or salivarius and contains in its structure muramyl dipeptide. L18-MDP is a MDP derivative containing C18 fatty acid.

[2] = system: osteoblast cell line MC4 cells (MC3T3-E1 Subclone 4); assay: Osteoblast differentiation by alkaline phosphatase (ALP) staining, MC4 cells; format: cell-based; details: 0.1, 1 and 10 μg/ml MDP, 5 days, differentiation medium; FIG. 1
Experimental: N-acetylmuramyl-L-Alanyl-D-Isoglutamine commercially available from Invivogen Inc. was dissolved in endotoxin free purified water to make a solution of 5 mg/ml. To assess the effect of muramyl dipeptide on the differentiation of osteoblast, osteoblast cell line MC4 cells (ATCC CRL-2593:MC3T3-E1 Subclone 4) were incubated in an ascorbic acid free-αMEM medium containing 10% fetal bovine serum, 50 unit/ml penicillin, 50 μg/ml streptomycin at 37° C. under 100% humidity and 5% CO2 atmosphere. The medium was changed every 3 days.
Then MC4 cells were seeded onto each well of a 48 well plate at the concentration of 20,000 cells/well and then after 16 hrs, each well was treated for 5 days with 400 μl of 0, 0.1, 1 and 10 μg/ml of MDP as prepared above in the differentiation medium (50 μg/ml ascorbic acid and 10 mM beta-glycerophosphate containing αMEM), during which half of the medium was changed twice with the differentiation medium. The effect on the differentiation was analyzed using alkaline phosphatase (ALP) staining. Results are shown in FIG. 1, in which the effect on the differentiation was determined by the number of cells showing red-purple color as well as the intensity of the color. […] Each experiment was repeated at least 3 times.

Runx2 [3] = assay: RT-PCR of Runx2 mRNA in MC4 cells; format: cell-based; details: 6 hrs, normalized relative to β-actin, FIG. 2 upper part
Experimental: Then, total mRNA was extracted from the cells and incubated with random primer at 70° C. for 5 min. After that reverse transcriptase, buffer for RT and dNTPs were added to the reaction mixture and incubated at 42° C. for 1 hr to synthesize cDNA, which was then used as a template for PCR to amplify Runx2 using specific primers as described in Table 1 and using the following condition: cDNA was initially denatured at 94° C. for 5 min followed by 25 cycles at 95° C. for 40 s, 59° C. for 40 s, and 72° C. for 40 s and final extension for 5 min at 72° C. […] The results were normalized relative to β-actin data.

Runx2 [4] = assay: Immunoblot of Runx2 protein in MC4 cells; format: cell-based; details: 24 hrs, β-actin loading control, FIG. 2 lower part
Experimental: Also to examine the effect at the protein level, whole cell extract was prepared from the cells treated with MDP for 24 hrs as described above, and 40 μg of extract was used for SDS-PAGE electrophoresis. Then the gel was transferred to a PVDF membrane and immunoblot was performed using an antibody specific to Runx2 (Abcam, USA). […] The β-actin was used as a loading control.

WT C57BL/6 (B6) mice [5] = assay: Bone volume of mouse femur by microCT after MDP administration; format: in vivo
Experimental: Six-week-old WT C57BL/6 (B6) mice were purchased from Orient Company Ltd (Seoul, Korea). The animals were maintained at a controlled temperature (21±1° C.) and humidity (55±1%) with a 12/12-h light-dark cycle without any restriction of food and water. All animal experiments were performed following the protocol approved by the Institutional Animal Care and Use Committee of CRISNUH.
(§1) To each mouse, 1.25 mg/kg of MDP prepared as described in Example 1 was administered twice with a 4 day interval by intraperitoneal injection. Physiological saline was used as a control. The second injection was given 4 days after the first injection and after 3 days the mice were sacrificed and used for bone volume analysis.
A right femur was removed from the sacrificed mouse and stripped of the muscle. The excised femur was then fixed in 10% of neutral formalin for one day at the least, which was then analyzed for bone volume using microCT. […] In FIG. 5, BV/TV=Bone volume/Tissue volume=% bone volume.

WT C57BL/6 (B6) mice [6] = assay: Histological observation (H&E) of mouse femur; format: in vivo; details: 1.25 mg/kg i.p. twice, vs physiological saline control; FIG. 6
Experimental: as §1
The femur used for the analysis of bone volume in Example 3-3 was used for a histological observation. For this, the femur was demineralized in 10% EDTA for 7 days and washed with running water for 12 hrs in a tissue capsule. After that, the femur was treated with alcohol and xylene and embedded in paraffin, from which sections having a thickness of 4 μm were prepared. The sections were then placed on a slide glass and deparaffinized at 65° C. for 30 min and treated with Hematoxylin and Eosin according to the conventional method.
The slides were then examined with a light microscope to observe the bone formation.

osteoblast = assay: OPG and RANKL regulation in the osteoblast (data not shown); format: cell-based
[7] = system: mouse model treated with GST-RANKL; assay: GST-RANKL induced bone loss mouse model, microCT bone volume; format: in vivo; details: pretreatment 1.25 mg/kg i.p. twice, then GST-RANKL 1 mg/kg i.p. three times; vs controls not pretreated; FIG. 8
Experimental: Muramyl dipeptide was administered to a mouse by an intraperitoneal injection two times with four day interval between the administration at the concentration of 1.25 mg/kg. After 3 days of the administration, GST-RANKL recombinant protein was intraperitoneally administered at the concentration of 1 mg/kg three times with a 24 hr interval between the administrations, The bone volume was analyzed at 1 day after the last administrated with GST-RANKL. The recombinant protein was prepared using a RANKL expression vector, pGEX-GST-RANKL (J. Clin Invest. 106:1481-1488 (2000)), which was expressed in E. coli and the protein was purified using a sepharose gel attached with glutathione (glutathione-sepharose gels, Sigma-Aldrich). The purified protein was then treated with Detoxi-gel endotoxin removing gel (Thermo Scientific, USA) to remove endotoxin and used for the experiment. Seven days after the administration, mice were sacrificed and the bone volume was measured using a microCT. As controls, mice treated only with physiological saline, GST-RANKL or physiological saline and GST-RANKL in a consecutive order were used.

[8] = system: RANKL-primed osteoclast precursors; assay: Osteoclast differentiation from RANKL-primed osteoclast precursors, TRAP staining; details: 20 ng/ml M-CSF, 3 days; FIG. 7 right graph
Experimental: Bone marrow cells (BMs) were isolated from the long bones of mouse and were cultured in α-MEM supplemented with 10% FBS, 100 U/ml penicillin and 100 μg/ml streptomycin, and 2 ng/ml M-CSF for 1 day. Suspended cells were differentiated into BMMs with 20 ng/ml M-CSF for 3 days. […] To make RANKL-primed osteoclast precursors, the BMMs were stimulated with 20 ng/ml mouse RANKL for 48 h. The BMMs were incubated with 20 ng/ml M-CSF in the presence or absence of MDP for additional 3 days.
The differentiation was determined by tartrate resistant acid phosphatase (TRAP) staining using Leukocyte acid phosphate-staining kit (Sigma-Aldrich Chemical, USA) according to the manufacturer's instruction. After the staining, TRAP-positive multinucleated cells with at least 3 nuclei were enumerated as mature osteoclasts with an inverted phase-contrast microscope and results are shown in FIG. 7.

[9] = 1.25 mg/kg i.p. twice, vs physiological saline control, FIG. 5

Substance	expression of Runx2 at the transcriptional level (reporter) (Runx2 [1]; FIG. 3B)	activity on Runx2 compared with MDP (Runx2 [1]; higher than that of MDP, FIG. 3B) [times]	differentiation of MC4 (ALP staining) [2]	mRNA expression of Runx2 (Runx2 [3])	expression of Runx2 protein (Runx2 [4])	luciferase activity (transcription of osteocalcin, affected by Runx2) (Runx2 [1]; MC4 cells, 24 hrs after addition, FIG. 3A)	bone volume (microCT 3D image) (WT C57BL/6 (B6) mice [5]; 1.25 mg/kg i.p. twice with 4 day interval, right femur, vs physiological saline, FIG. 4)	Trabecular bone volume (BV/TV) (WT C57BL/6 (B6) mice [5]; [9])	Trabecular number (Tb.N) (WT C57BL/6 (B6) mice [5]; [9])	Trabecular thickness (Tb.Th) (WT C57BL/6 (B6) mice [5]; [9])	spongy bone in femur sections (H&E) (WT C57BL/6 (B6) mice [6])	Osteoprotegerin (OPG) regulation in the osteoblast (osteoblast)	RANKL regulation in the osteoblast (osteoblast)	indirect effect on osteoclast differentiation (osteoblast; through OPG and RANKL in the osteoblast)	bone loss due to GST-RANKL (bone volume, microCT) [7]	osteoclast differentiation from RANKL-primed osteoclast precursors [8]
6-O-stearoyl-N-acetylmuramyl-L-alanyl-D-isoglutamine [L18-MDP]	increased the expression of Runx2 at the transcriptional level	10	–	–	–	–	–	–	–	–	–	–	–	–	–	–
N-acetylmuramyl-L-Alanyl-D-Isoglutamine [MDP]	increased the expression of Runx2 at the transcriptional level	–	increased in a concentration dependent manner	increased after MDP treatment in a concentration dependent manner	increased the expression of Runx2 protein	increased the transcription of osteocalcin	increase in bone volume	increased statistically significantly	increased statistically significantly	increased statistically significantly	more spongy bone was observed	up-regulation	down-regulation	indirectly alleviated osteoclast differentiation	reduced	did not affect
N-acetylmuramyl-L-alanine-D-isoglutamine-lysine [MTnLYS]	increased the expression of Runx2 at the transcriptional level	–	–	–	–	–	–	–	–	–	–	–	–	–	–	–
